Reference: US10787413B2, “Derivatives of curcuminoids and use thereof as an anticancer agent” (CHINA MEDICAL UNIVERSITY, priority 2016, dated 2020)
Where two headings read alike, the source gives them in different places.

Key:
MDA-MB-231 Xenograft = settings: Doxorubicin alone, IP 1 mg/kg/day
Description: Female nu/nu mice (5 weeks old) were from National Laboratory Animal Center, Taipei, Taiwan. […] MDA-MB-231 breast cancer cells (5×10^6 cells per mouse) were suspended in 0.1 ml of Matrigel solution (50% (v/v) Matrigel in PBS) and inoculated into the mammary fat pads of the mice. […] Compounds was administered P.O. once every day for 32 days. Tumor size and mouse body weight were measured once every 4 days, and tumor volume (mm3) was calculated using the equation: length×(width)^2×0.5. At the end of experiments, mice were sacrificed and tumor nodules were dissected and weighed.

PC3 prostate cancer cell = test: MTT cell viability assay, PC3 prostate cancer cell; format: cell-based
Description: (§1) Cell viability was evaluated by measuring the reduction in MTT to yield blue formazan. Cells were cultured in 96-well plates, allowed to attach overnight, and then treated with compounds. After treatment, MTT solution (1 mg/ml) was added to each well, and plates were incubated for another 4 h. Medium were removed, blue formazan was dissolved in DMSO, and the absorbance was read at 570 nm^20.

[1] = tested on: HCT-116 colon cancer cell; test: MTT cell viability assay, HCT-116 colon cancer cell; format: cell-based; settings: Homo sapiens
Description: as §1

[2] = tested on: MDA-MB-231 breast cancer cell; test: MTT cell viability assay, MDA-MB-231 breast cancer cell; format: cell-based, human; settings: for IC50: Homo sapiens; for times more potent than curcumin (IC50): MDA-MB-231, 72 h treatment, curcumin IC50 16.23 μM
Description: Cell viability was evaluated by measuring the reduction in MTT to yield blue formazan. Cells were cultured in 96-well plates, allowed to attach overnight, and then treated with compounds. After treatment, MTT solution (1 mg/ml) was added to each well, and plates were incubated for another 4 h.

[3] = PC-3, treated 24 hours, read-out: IC50 24 hours
[4] = PC-3, treated 48 hours, read-out: IC50 48 hours
[5] = PC-3, treated 72 hours, read-out: IC50 72 hours
[6] = HCT-116, treated 24 hours, read-out: IC50 24 hours
[7] = HCT-116, treated 48 hours, read-out: IC50 48 hours
[8] = HCT-116, treated 72 hours, read-out: IC50 72 hours
[9] = MDA-MB-231, 24 h, MDA-MB-231, treated 24 hours, read-out: IC50 24 hours
[10] = MDA-MB-231, 48 h, MDA-MB-231, treated 48 hours, read-out: IC50 48 hours
[11] = MDA-MB-231, 72 h, MDA-MB-231, treated 72 hours, read-out: IC50 72 hours

For `COc1cccc2c1C(=O)c1c(O)c3c(c(O)c1C2=O)C[C@@](O)(C(=O)CO)C[C@@H]3O[C@H]1C[C@H](N)[C@H](O)[C@H](C)O1` [Doxorubicin, reference compound], the “reduction of MDA-MB-231 tumor weight compared with control group” value (MDA-MB-231 Xenograft) was 60%.
For `CC(CO)(CO)C(=O)Oc1ccc(/C=C/C(=O)/C=C(O)/C=C/c2ccc(O)cc2)cc1` [Compound 23b, 4-((1E,4Z,6E)-5-hydroxy-7-(4-hydroxyphenyl)-3-oxohept-1,4,6-trien-1-yl)phenyl 3-hydroxy-2-(hydroxymethyl)-2-methylpropanoate], the IC50 (PC3 prostate cancer cell; [3]) was 20.1 ± 2.62 µM, the IC50 (PC3 prostate cancer cell; [4]) was 11 ± 0.44 µM and the IC50 (PC3 prostate cancer cell; [5]) was 5.22 ± 0.27 µM. For the same molecule, the IC50 [1, 6] was 71.9 ± 7.87 µM, the IC50 [1, 7] was 11.3 ± 0.72 µM and the IC50 [1, 8] was 4.78 ± 0.66 µM. For the same molecule, the IC50 [2, 9] was 19.5 ± 1.82 µM, the IC50 [2, 10] was 5.27 ± 0.57 µM and the IC50 [2, 11] was 1.33 µM. The “times more potent than curcumin (IC50)” value [2] was “about 12 times” and the melting point was 206 to 208 °C.
In the case of `C=CCC(CC=C)(C(=O)/C=C/c1ccc(OC(=O)C(C)(CO)CO)c(OC)c1)C(=O)/C=C/c1ccc(OC(=O)C(C)(CO)CO)c(OC)c1` [Compound 35e, ((1E,6E)-4,4-diallyl-3,5-dioxohepta-1,6-diene-1,7-diyl)bis(2-methoxy-4,1-phenylene) bis(3-hydroxy-2-(hydroxymethyl)-2-methylpropanoate)], the IC50 (PC3 prostate cancer cell; [3]) is reported as 4.24 ± 0.18 µM, the IC50 (PC3 prostate cancer cell; [4]) is reported as 3.54 ± 0.26 µM and the IC50 (PC3 prostate cancer cell; [5]) is reported as 2.63 ± 0.77 µM. For the same molecule, the IC50 [1, 6] was 2.18 ± 0.22 µM, the IC50 [1, 8] was 0.71 ± 0.01 µM and the IC50 [2, 9] was 9.02 ± 0.5 µM. The IC50 [2, 11] was 0.71 µM and the melting point was 195 to 197 °C.
`CCC(CO)(CO)C(=O)Oc1ccc(/C=C/C(=O)/C=C(O)/C=C/c2ccc(O)c(OC)c2)cc1OC` [Compound 22b, 4-((1E,4Z,6E)-5-Hydroxy-7-(4-hydroxy-3-methoxyphenyl)-3-oxohepta-1,4,6-trien-1-yl)-2-methoxyphenyl 2,2-bis(hydroxymethyl)butanoate] showed an IC50 (PC3 prostate cancer cell; [3]) of 13.8 ± 1.48 µM, an IC50 (PC3 prostate cancer cell; [4]) of 14.4 ± 0.82 µM and an IC50 (PC3 prostate cancer cell; [5]) of 12.5 ± 0.1 µM. It also gave an IC50 [1, 6] of 21.2 ± 2.48 µM, an IC50 [1, 7] of 12.4 ± 0.16 µM and an IC50 [1, 8] of 11.4 ± 1.05 µM. It also gave an IC50 [2, 9] of 14.6 ± 2.42 µM, an IC50 [2, 10] of 7.55 ± 0.86 µM and an IC50 [2, 11] of 4.66 µM. The melting point was 82 to 83 °C.
Molecule `CC(CO)(CO)C(=O)Oc1ccc(/C=C/C(=O)/C=C(O)/C=C/c2ccc(OC(=O)C(C)(CO)CO)cc2)cc1` [Compound 23a, ((1E,3Z,6E)-3-Hydroxy-5-oxohepta-1,3,6-triene-1,7-diyl)bis(4,1-phenylene) bis(3-hydroxy-2-(hydroxymethyl)-2-methylpropanoate)] has an IC50 (PC3 prostate cancer cell; [3]) of 8.46 ± 0.64 µM, an IC50 (PC3 prostate cancer cell; [4]) of 8.77 ± 0.8 µM and an IC50 (PC3 prostate cancer cell; [5]) of 5.59 ± 0.2 µM. For the same molecule, the IC50 [1, 6] was 57.4 ± 12.2 µM, the IC50 [1, 7] was 8.64 ± 0.18 µM and the IC50 [1, 8] was 4.1 ± 0.06 µM. It also gave an IC50 [2, 9] of 26.7 ± 1.85 µM, an IC50 [2, 10] of 7.82 ± 0.56 µM and an IC50 [2, 11] of 6.74 µM. The melting point was 192 to 194 °C.
`COc1ccc(/C=C/C(=O)CC(=O)/C=C/c2ccc(OC)c(OC(=O)C(C)(CO)CO)c2)cc1OC(=O)C(C)(CO)CO` [Compound 24a, ((1E,6E)-3,5-Dioxohepta-1,6-diene-1,7-diyl)bis(2-methoxy-5,1-phenylene) bis(3-hydroxy-2-(hydroxymethyl)-2-methylpropanoate)] showed an IC50 (PC3 prostate cancer cell; [3]) of 11.9 ± 1.4 µM, an IC50 (PC3 prostate cancer cell; [4]) of 6.43 ± 0.26 µM and an IC50 (PC3 prostate cancer cell; [5]) of 4.74 ± 0.04 µM. It also gave an IC50 [1, 6] of 11.4 ± 1.11 µM, an IC50 [1, 7] of 5.33 ± 0.29 µM and an IC50 [1, 8] of 2.79 ± 0.15 µM. It also gave an IC50 [2, 9] of 9.22 ± 2.24 µM, an IC50 [2, 10] of 5.11 ± 0.96 µM and an IC50 [2, 11] of 4.61 µM. For the same molecule, the “times more potent than curcumin (IC50)” value [2] was “about 3.5 times” and the melting point was 194 to 196 °C.
Molecule `COc1ccc(/C=C/C(O)=C/C(=O)/C=C/c2ccc(OC(=O)C(C)(CO)CO)c(OC)c2)cc1OC` [Compound 33, 4-((1E,4Z,6E)-7-(3,4-dimethoxyphenyl)-5-hydroxy-3-oxohepta-1,4,6-triene-1-yl)-2-methoxyphenyl 3-hydroxy-2-(hydroxymethyl)-2-methylpropanoate] has an IC50 (PC3 prostate cancer cell; [3]) of 7.77 ± 0.88 µM, an IC50 (PC3 prostate cancer cell; [4]) of 7.85 ± 0.81 µM and an IC50 (PC3 prostate cancer cell; [5]) of 7.64 ± 0.75 µM. For the same molecule, the IC50 [1, 6] was 10.5 ± 0.64 µM, the IC50 [1, 7] was 7.56 ± 0.77 µM and the IC50 [1, 8] was 4.77 ± 0.24 µM. The IC50 [2, 9] was 4.69 ± 0.73 µM, the IC50 [2, 10] was 3.12 ± 0.17 µM and the IC50 [2, 11] was 2.55 µM. For the same molecule, the melting point was 99 to 101 °C.
